Assay results taken from PMC3049140, “Mechanism of acetaldehyde-induced deactivation of microbial lipases” (BMC Biochemistry, 2011).

How the values were obtained:
Type in all cases: biochemical
[1] = biological target: T1, BSL-B (Bacillus subtilis lipase B) (Bacillus subtilis, UniProt Q79F14); test: residual hydrolytic activity, p-nitrophenylpalmitate assay; details: read-out: residual activity at 50 mM
T1 construct: gene estB
T1 sequence (Q79F14 29-210): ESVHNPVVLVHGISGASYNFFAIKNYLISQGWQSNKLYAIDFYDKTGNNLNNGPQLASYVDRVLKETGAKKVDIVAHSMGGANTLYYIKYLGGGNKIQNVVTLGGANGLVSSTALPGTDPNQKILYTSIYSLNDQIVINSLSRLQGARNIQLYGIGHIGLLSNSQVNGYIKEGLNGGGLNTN

[2] = biological target: T2, BSL-A (Bacillus subtilis lipase A) (Bacillus subtilis, UniProt P37957); test: p-nitrophenylpalmitate hydrolysis assay
T2 construct: gene estA
T2 sequence (P37957 32-212): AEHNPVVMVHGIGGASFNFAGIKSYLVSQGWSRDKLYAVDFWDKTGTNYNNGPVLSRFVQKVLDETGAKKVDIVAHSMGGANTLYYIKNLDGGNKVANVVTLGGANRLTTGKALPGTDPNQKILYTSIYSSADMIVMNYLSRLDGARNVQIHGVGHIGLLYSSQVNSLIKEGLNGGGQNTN

[3] = biological target: T1, BSL-B (Bacillus subtilis lipase B); test: p-nitrophenylpalmitate hydrolysis assay

Structure (SMILES) | remaining activity at 50000 µM [1] [%] | p-nitrophenylpalmitate hydrolysis assay [2] | p-nitrophenylpalmitate hydrolysis assay [3]
CC=CC=CC=O [2,4-hexadienal] | 19 | – | –
CCCCCCCCCCCCCCCC(=O)Oc1ccc([N+](=O)[O-])cc1 [pNPP, p-nitrophenylpalmitate] | – | assayed for residual activity using the p-nitrophenylpalmitate assay | residual enzyme activity determined with p-nitrophenylpalmitate as the substrate
